Assay results: the NIST ThermoML archive (doi:10.1016/j.jct.2011.08.009)
Several values for one entry are separate records, joined by “and”; a condition that tells them apart may be missing. Equal values may be shown once.

Details: Liquid, Closed cell (Static) method

CCC(C)N (stereo unspecified) [2-butanamine]
Details | vapor or sublimation pressure
274.06 K | 6.81 kPa
274.09 K | 6.804 kPa
283.91 K | 11.46 kPa
293.15 K | 18.43 kPa
293.88 K | 19.21 kPa
303.15 K | 29.11 kPa
303.84 K | 30.04 kPa and 30.03 kPa
313.15 K | 44.25 kPa
313.81 K | 45.47 kPa and 45.38 kPa
323.15 K | 65.05 kPa
323.92 K | 66.77 kPa
333.15 K | 92.82 kPa
333.91 K | 95.07 kPa and 95.08 kPa and 95.1 kPa
343.15 K | 128.99 kPa
343.86 K | 132.08 kPa and 132.05 kPa
353.15 K | 175.09 kPa
353.9 K | 179.16 kPa and 178.99 kPa
363.15 K | 232.69 kPa

NC1CCCCC1 [cyclohexylamine]
Details | vapor or sublimation pressure
273.15 K | 0.2306 kPa
274.3 K | 0.2512 kPa
283.15 K | 0.4646 kPa
283.86 K | 0.4861 kPa
293.15 K | 0.8833 kPa
293.83 K | 0.9213 kPa
293.86 K | 0.9213 kPa
293.88 K | 0.9229 kPa and 0.9217 kPa
303.15 K | 1.596 kPa
303.79 K | 1.661 kPa
303.82 K | 1.66 kPa
303.84 K | 1.661 kPa
313.15 K | 2.756 kPa
313.79 K | 2.852 kPa
313.81 K | 2.854 kPa
323.15 K | 4.573 kPa
323.92 K | 4.755 kPa
323.97 K | 4.757 kPa
323.99 K | 4.757 kPa and 4.758 kPa
333.15 K | 7.32 kPa
334 K | 7.563 kPa
343.15 K | 11.35 kPa
344 K | 12.08 kPa
353.15 K | 17.98 kPa
354.06 K | 17.65 kPa
363.15 K | 25.06 kPa
364.1 K | 25.96 kPa
364.13 K | 25.94 kPa and 25.96 kPa

O [water]
Details | vapor or sublimation pressure [kPa]
273.15 K | 0.5817
283.15 K | 1.186
293.15 K | 2.281
303.15 K | 4.172
313.15 K | 7.294
323.15 K | 12.25
333.15 K | 19.84
343.15 K | 31.11
353.15 K | 47.37
363.15 K | 70.25
